Test results published in article PMC5037758, “Affinity of ^nat/68Ga-Labelled Curcumin and Curcuminoid Complexes for β-Amyloid Plaques: Towards the Development of New Metal-Curcumin Based Radiotracers” (International Journal of Molecular Sciences, 2016).

Experiments:
[1] = target: T1, amyloid β-protein (1–40) (Homo sapiens, UniProt P05067); experiment: direct radioligand binding to fibrils with displacement by curcumin; fluorescence microscopy
T1 construct: gene APP; Aβ(1–40) synthetic amyloid fibrils

[2] = target: T1, amyloid β-protein (1–40); experiment: direct radioligand binding to fibrils (not displaced by curcumin, lower specificity); fluorescence microscopy

T1 sequence (P05067 672-711): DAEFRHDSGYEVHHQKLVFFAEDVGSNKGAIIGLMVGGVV

| Substance | % bound [1] [% bound] | % bound [2] |
| --- | --- | --- |
| ^68Ga(CUR)2^+ | > 90 |  |
| ^68Ga(bDHC)2^+ |  | ~ 50 % bound |
| ^68Ga(DAC)2^+ | > 90 |  |
